Results: PubChem BioAssay (NCI)
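Grown in 96-well plates, cells were treated for 48 hours with each compound at five concentrations. Insufficient inhibition: endpoint recorded as highest concentration tested. The concentration for 50% growth inhibition is given as GI50. TGI: total growth inhibition.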

Tests used:
Assay in all cases: growth of human tumour cells (NCI), 48 h
NCI-H23 lung = test system: NCI-H23 lung
MOLT-4 leukemia = test system: MOLT-4 leukemia
SN12C renal = test system: SN12C renal
SF-539 CNS = test system: SF-539 CNS
TK-10 renal = test system: TK-10 renal
OVCAR-8 ovarian = test system: OVCAR-8 ovarian
ACHN renal = test system: ACHN renal
HOP-92 NSCLC = test system: HOP-92 NSCLC
U251 CNS = test system: U251 CNS
MDA-MB-435 = test system: MDA-MB-435
COLO 205 colon = test system: COLO 205 colon
SW-620 colon = test system: SW-620 colon
UACC-257 melanoma = test system: UACC-257 melanoma
RPMI-8226 leukemia = test system: RPMI-8226 leukemia
DU-145 prostate = test system: DU-145 prostate
EKVX NSCLC = test system: EKVX NSCLC
LOX IMVI melanoma = test system: LOX IMVI melanoma
SK-MEL-2 melanoma = test system: SK-MEL-2 melanoma
HCC-2998 colon = test system: HCC-2998 colon
NCI-H460 lung = test system: NCI-H460 lung
UACC-62 melanoma = test system: UACC-62 melanoma
HS 578T breast = test system: HS 578T breast
A549 NSCLC = test system: A549 NSCLC
PC-3 prostate = test system: PC-3 prostate
OVCAR-3 ovarian = test system: OVCAR-3 ovarian
MDA-MB-231 breast = test system: MDA-MB-231 breast
HT29 colon = test system: HT29 colon
BT-549 breast = test system: BT-549 breast
HCT-15 colon = test system: HCT-15 colon
SF-295 CNS = test system: SF-295 CNS
T-47D breast = test system: T-47D breast
SK-OV-3 ovarian = test system: SK-OV-3 ovarian
CAKI-1 renal = test system: CAKI-1 renal
K-562 leukemia = test system: K-562 leukemia
NCI/ADR-RES ovarian = test system: NCI/ADR-RES ovarian
SF-268 CNS = test system: SF-268 CNS
HCT-116 colon = test system: HCT-116 colon
M14 melanoma = test system: M14 melanoma
KM12 colon = test system: KM12 colon
MCF7 breast = test system: MCF7 breast
OVCAR-4 ovarian = test system: OVCAR-4 ovarian
IGROV1 ovarian = test system: IGROV1 ovarian
A498 renal = test system: A498 renal
CCRF-CEM leukemia = test system: CCRF-CEM leukemia
SNB-75 CNS = test system: SNB-75 CNS
NCI-H226 lung = test system: NCI-H226 lung
SR leukemia = test system: SR leukemia
SK-MEL-5 melanoma = test system: SK-MEL-5 melanoma
RXF 393 renal = test system: RXF 393 renal
UO-31 renal = test system: UO-31 renal
NCI-H522 lung = test system: NCI-H522 lung
SK-MEL-28 melanoma = test system: SK-MEL-28 melanoma
MALME-3M melanoma = test system: MALME-3M melanoma
HL-60(TB) leukemia = test system: HL-60(TB) leukemia
786-0 renal = test system: 786-0 renal
SNB-19 CNS = test system: SNB-19 CNS
OVCAR-5 ovarian = test system: OVCAR-5 ovarian
HOP-62 NSCLC = test system: HOP-62 NSCLC

Q: Which GI50 (NCI-H23 lung) does the source give for O=C(NNc1nc2cc(F)c(F)cc2n2cccc12)c1ccncn1 here?
A: 1.26 µM

Q: And the TGI (NCI-H23 lung)?
A: 11.5 µM

Q: And the GI50 (MOLT-4 leukemia)?
A: 0.179 µM

Q: What about the TGI (MOLT-4 leukemia) of the same compound?
A: > 30 µM

Q: What about the GI50 (SN12C renal) of the same compound?
A: 0.678 µM

Q: What about the TGI (SN12C renal) of the same compound?
A: 9.34 µM

Q: And the GI50 (SF-539 CNS)?
A: 0.596 µM

Q: And the TGI (SF-539 CNS)?
A: 6.3 µM

Q: And the GI50 (TK-10 renal)?
A: 0.547 µM

Q: And the TGI (TK-10 renal)?
A: 5.18 µM

Q: What about the GI50 (OVCAR-8 ovarian) of the same compound?
A: 0.253 µM

Q: And the TGI (OVCAR-8 ovarian)?
A: 9.55 µM

Q: And the GI50 (ACHN renal)?
A: 0.187 µM

Q: And the TGI (ACHN renal)?
A: 3.93 µM

Q: What about the GI50 (HOP-92 NSCLC) of the same compound?
A: 0.697 µM

Q: And the TGI (HOP-92 NSCLC)?
A: 6.38 µM

Q: And the GI50 (U251 CNS)?
A: 0.182 µM

Q: What about the TGI (U251 CNS) of the same compound?
A: 7.02 µM

Q: And the GI50 (MDA-MB-435)?
A: 1.12 µM

Q: What about the TGI (MDA-MB-435) of the same compound?
A: 6.96 µM

Q: And the GI50 (COLO 205 colon)?
A: 0.313 µM

Q: And the TGI (COLO 205 colon)?
A: 4.06 µM

Q: What about the GI50 (SW-620 colon) of the same compound?
A: 0.313 µM

Q: What about the TGI (SW-620 colon) of the same compound?
A: 12.2 µM

Q: And the GI50 (UACC-257 melanoma)?
A: 0.926 µM

Q: And the TGI (UACC-257 melanoma)?
A: 5.88 µM

Q: What about the GI50 (RPMI-8226 leukemia) of the same compound?
A: 0.571 µM

Q: And the TGI (RPMI-8226 leukemia)?
A: > 20.9 µM

Q: And the GI50 (DU-145 prostate)?
A: 0.4 µM

Q: What about the TGI (DU-145 prostate) of the same compound?
A: 18.2 µM

Q: What about the GI50 (EKVX NSCLC) of the same compound?
A: 0.255 µM

Q: What about the TGI (EKVX NSCLC) of the same compound?
A: 4.93 µM

Q: What about the GI50 (LOX IMVI melanoma) of the same compound?
A: 0.191 µM

Q: What about the TGI (LOX IMVI melanoma) of the same compound?
A: 5.11 µM

Q: What about the GI50 (SK-MEL-2 melanoma) of the same compound?
A: 3.52 µM

Q: What about the TGI (SK-MEL-2 melanoma) of the same compound?
A: 11.5 µM

Q: What about the GI50 (HCC-2998 colon) of the same compound?
A: 0.452 µM

Q: What about the TGI (HCC-2998 colon) of the same compound?
A: 4.55 µM

Q: And the GI50 (NCI-H460 lung)?
A: 0.161 µM

Q: And the TGI (NCI-H460 lung)?
A: 9.46 µM

Q: What about the GI50 (UACC-62 melanoma) of the same compound?
A: 0.333 µM

Q: And the TGI (UACC-62 melanoma)?
A: 5.14 µM

Q: What about the GI50 (HS 578T breast) of the same compound?
A: 2.94 µM

Q: And the TGI (HS 578T breast)?
A: 20.4 µM

Q: What about the GI50 (A549 NSCLC) of the same compound?
A: 0.275 µM

Q: What about the TGI (A549 NSCLC) of the same compound?
A: 20.2 µM

Q: What about the GI50 (PC-3 prostate) of the same compound?
A: 0.309 µM

Q: What about the TGI (PC-3 prostate) of the same compound?
A: > 13.4 µM

Q: And the GI50 (OVCAR-3 ovarian)?
A: 0.301 µM

Q: And the TGI (OVCAR-3 ovarian)?
A: 5.16 µM

Q: And the GI50 (MDA-MB-231 breast)?
A: 0.839 µM

Q: What about the TGI (MDA-MB-231 breast) of the same compound?
A: 6.95 µM

Q: And the GI50 (HT29 colon)?
A: 0.395 µM

Q: What about the TGI (HT29 colon) of the same compound?
A: 15.3 µM

Q: What about the GI50 (BT-549 breast) of the same compound?
A: 1.4 µM

Q: And the TGI (BT-549 breast)?
A: 8.94 µM

Q: And the GI50 (HCT-15 colon)?
A: 0.119 µM

Q: What about the TGI (HCT-15 colon) of the same compound?
A: 5.52 µM

Q: And the GI50 (SF-295 CNS)?
A: 0.156 µM

Q: And the TGI (SF-295 CNS)?
A: 3.87 µM

Q: What about the GI50 (T-47D breast) of the same compound?
A: 0.353 µM

Q: What about the TGI (T-47D breast) of the same compound?
A: 5.17 µM

Q: What about the GI50 (SK-OV-3 ovarian) of the same compound?
A: 0.522 µM

Q: What about the TGI (SK-OV-3 ovarian) of the same compound?
A: 5.16 µM

Q: And the GI50 (CAKI-1 renal)?
A: 0.286 µM

Q: What about the TGI (CAKI-1 renal) of the same compound?
A: 4.22 µM

Q: What about the GI50 (K-562 leukemia) of the same compound?
A: 0.173 µM

Q: And the TGI (K-562 leukemia)?
A: > 30 µM

Q: What about the GI50 (NCI/ADR-RES ovarian) of the same compound?
A: 0.225 µM

Q: What about the TGI (NCI/ADR-RES ovarian) of the same compound?
A: 6.33 µM

Q: What about the GI50 (SF-268 CNS) of the same compound?
A: 0.408 µM

Q: What about the TGI (SF-268 CNS) of the same compound?
A: 9.39 µM

Q: And the GI50 (HCT-116 colon)?
A: 0.217 µM

Q: And the TGI (HCT-116 colon)?
A: 5.43 µM

Q: What about the GI50 (M14 melanoma) of the same compound?
A: 0.37 µM

Q: And the TGI (M14 melanoma)?
A: 8.6 µM

Q: And the GI50 (KM12 colon)?
A: 0.331 µM

Q: What about the TGI (KM12 colon) of the same compound?
A: 12.5 µM

Q: What about the GI50 (MCF7 breast) of the same compound?
A: 0.235 µM

Q: What about the TGI (MCF7 breast) of the same compound?
A: 3.93 µM

Q: What about the GI50 (OVCAR-4 ovarian) of the same compound?
A: 0.18 µM

Q: What about the TGI (OVCAR-4 ovarian) of the same compound?
A: 3.61 µM

Q: What about the GI50 (IGROV1 ovarian) of the same compound?
A: 0.206 µM

Q: And the TGI (IGROV1 ovarian)?
A: 4.87 µM

Q: What about the GI50 (A498 renal) of the same compound?
A: 1.14 µM

Q: And the TGI (A498 renal)?
A: 5.62 µM

Q: And the GI50 (CCRF-CEM leukemia)?
A: 0.142 µM

Q: And the TGI (CCRF-CEM leukemia)?
A: > 30 µM

Q: And the GI50 (SNB-75 CNS)?
A: 0.365 µM

Q: And the TGI (SNB-75 CNS)?
A: 6.35 µM

Q: And the GI50 (NCI-H226 lung)?
A: 0.381 µM

Q: What about the TGI (NCI-H226 lung) of the same compound?
A: 5.66 µM

Q: And the GI50 (SR leukemia)?
A: 0.146 µM

Q: And the TGI (SR leukemia)?
A: > 12.3 µM

Q: And the GI50 (SK-MEL-5 melanoma)?
A: 0.745 µM

Q: And the TGI (SK-MEL-5 melanoma)?
A: 5.12 µM

Q: What about the GI50 (RXF 393 renal) of the same compound?
A: 0.834 µM

Q: And the TGI (RXF 393 renal)?
A: 5.16 µM

Q: And the GI50 (UO-31 renal)?
A: 0.14 µM

Q: What about the TGI (UO-31 renal) of the same compound?
A: 4.19 µM

Q: And the GI50 (NCI-H522 lung)?
A: 0.803 µM

Q: And the TGI (NCI-H522 lung)?
A: 11.6 µM

Q: What about the GI50 (SK-MEL-28 melanoma) of the same compound?
A: 0.771 µM

Q: And the TGI (SK-MEL-28 melanoma)?
A: 6.35 µM

Q: And the GI50 (MALME-3M melanoma)?
A: 1.5 µM

Q: And the TGI (MALME-3M melanoma)?
A: 6.77 µM

Q: What about the GI50 (HL-60(TB) leukemia) of the same compound?
A: 0.39 µM

Q: What about the TGI (HL-60(TB) leukemia) of the same compound?
A: > 14.8 µM

Q: What about the GI50 (786-0 renal) of the same compound?
A: 1.01 µM

Q: And the TGI (786-0 renal)?
A: 6.64 µM

Q: What about the GI50 (SNB-19 CNS) of the same compound?
A: 0.417 µM

Q: And the TGI (SNB-19 CNS)?
A: 10.6 µM

Q: And the GI50 (OVCAR-5 ovarian)?
A: 1.19 µM

Q: And the TGI (OVCAR-5 ovarian)?
A: 11.4 µM

Q: What about the GI50 (HOP-62 NSCLC) of the same compound?
A: 0.199 µM

Q: And the TGI (HOP-62 NSCLC)?
A: 6.66 µM
